Usually IC50 stands for the concentration at which inhibition is half-maximal.

The results in this text go back to US20080021026A1, “BENZOTHIOPHENE INHIBITORS OF RHO KINASE” (priority 2006, published 2008).

The target in one assay is T1, recombinant N-terminal GST-tagged human Rho kinase 2 (ROCK2, amino acids 1-552) (Homo sapiens, UniProt O75116).
T1 construct: ROCK2, amino acids 1-552; purchased Invitrogen Inc. PV3759
T1 sequence (O75116 1-552): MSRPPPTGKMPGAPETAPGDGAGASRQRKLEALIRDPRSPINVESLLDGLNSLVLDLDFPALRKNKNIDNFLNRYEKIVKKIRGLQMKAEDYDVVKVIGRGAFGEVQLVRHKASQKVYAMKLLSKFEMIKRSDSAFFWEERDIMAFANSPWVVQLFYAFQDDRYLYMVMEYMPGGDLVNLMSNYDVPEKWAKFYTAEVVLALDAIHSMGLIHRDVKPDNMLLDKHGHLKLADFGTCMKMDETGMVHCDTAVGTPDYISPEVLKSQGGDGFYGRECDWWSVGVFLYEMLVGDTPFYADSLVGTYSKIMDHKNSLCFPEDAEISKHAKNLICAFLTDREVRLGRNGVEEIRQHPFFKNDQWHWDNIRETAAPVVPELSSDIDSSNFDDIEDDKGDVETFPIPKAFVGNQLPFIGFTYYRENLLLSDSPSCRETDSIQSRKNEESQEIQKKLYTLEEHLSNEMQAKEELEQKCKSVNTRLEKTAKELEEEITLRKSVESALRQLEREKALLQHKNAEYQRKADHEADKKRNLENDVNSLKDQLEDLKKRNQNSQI
Description: In vitro Rho kinase assay (luciferase-based ATP consumption), ROCK2. Format: biochemical. Particulars: ROCK2 IC50, recombinant GST-tagged human ROCK2, luciferase-based ATP consumption. The method in brief: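 Luciferase-based luminescence of leftover ATP after 2 h at 30 °C, where inhibition raises signal, reports activity of GST-tagged ROCK2 (aa 1-552) at 0.82 μg/ml. Conditions: S6 peptide 100 μg/ml, […], pH 7.5 Tris buffer. Results given as percent of H-1152P control activity.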
Turning to `Cc1c(-c2ccnc(N)n2)sc2ccc(C(=O)NCc3ccc(Cl)cc3Cl)cc12` [Example 447, Cc1c(sc2ccc(cc12)C(═O)NCc3ccc(Cl)cc3Cl)-c4ccnc(N)n4], the IC50 was over 5 µM.

Still in this assay, the particulars now being: recombinant GST-tagged human ROCK2, luciferase-based ATP consumption; read-out: ROCK2 IC50.
Turning to `Cc1c(-c2ccnc(N)n2)sc2ccc(C(=O)NCc3ccc(F)c(Cl)c3)cc12` [Example 432, Cc1c(sc2ccc(cc12)C(═O)NCc3ccc(F)c(Cl)c3)-c4ccnc(N)n4], the IC50 is under 5 µM.

As to `Cc1c(-c2ccnc(N)n2)sc2ccc(C(=O)N(CCC#N)Cc3ccccc3)cc12` [Example 433, Cc1c(sc2ccc(cc12)C(═O)N(CCC#N)Cc3ccccc3)-c4ccnc(N)n4], the 50% inhibitory concentration (IC50) is under 5 µM.

In the case of `Cc1c(-c2ccnc(N)n2)sc2ccc(C(=O)NCCNC(=O)OC(C)(C)C)cc12` [Example 434, Cc1c(sc2ccc(cc12)C(═O)NCCNC(═O)OC(C)(C)C)-c3ccnc(N)n3], the IC50 is under 5 µM.

As to `Cc1c(-c2ccnc(N)n2)sc2ccc(C(=O)NCCc3c[nH]c4ccccc34)cc12` [Example 435, Cc1c(sc2ccc(cc12)C(═O)NCCc3c[nH]c4ccccc34)-c5ccnc(N)n5], the IC50 was under 5 µM.

`Cc1c(-c2ccnc(N)n2)sc2ccc(C(=O)NCc3ccc(C(C)(C)C)cc3)cc12` [Example 436, Cc1c(sc2ccc(cc12)C(═O)NCc3ccc(cc3)C(C)(C)C)-c4ccnc(N)n4]: the IC50 was over 5 µM.

As for `Cc1c(-c2ccnc(N)n2)sc2ccc(C(=O)NCCCN(C)c3ccccc3)cc12` [Example 437, CN(CCCNC(═O)c1ccc2sc(c(C)c2c1)-c3ccnc(N)n3)c4ccccc4], the IC50 is under 5 µM.

In the case of `Cc1c(-c2ccnc(N)n2)sc2ccc(C(=O)NCC3(O)CCCCC3)cc12` [Example 438, Cc1c(sc2ccc(cc12)C(═O)NCC3(O)CCCCC3)-c4ccnc(N)n4], the IC50 is under 5 µM.

For `COc1cc(CNC(=O)c2ccc3sc(-c4ccnc(N)n4)c(C)c3c2)cc(OC)c1` [Example 439, COc1cc(CNC(═O)c2ccc3sc(c(C)c3c2)-c4ccnc(N)n4)cc(OC)c1], the IC50 was under 5 µM.

Turning to `COc1ccc(CNC(=O)c2ccc3sc(-c4ccnc(N)n4)c(C)c3c2)cc1OC` [Example 440, COc1ccc(CNC(═O)c2ccc3sc(c(C)c3c2)-c4ccnc(N)n4)cc1OC], the IC50 is under 5 µM.

In the case of `CCOC(=O)N1CCC(NC(=O)c2ccc3sc(-c4ccnc(N)n4)c(C)c3c2)CC1` [Example 442, CCOC(═O)N1CCC(CC1)NC(═O)c2ccc3sc(c(C)c3c2)-c4ccnc(N)n4], the IC50 was under 5 µM.

On to `Cc1c(-c2ccnc(N)n2)sc2ccc(C(=O)NCCCNC(=O)OC(C)(C)C)cc12` [Example 443, Cc1c(sc2ccc(cc12)C(═O)NCCCNC(═O)OC(C)(C)C)-c3ccnc(N)n3], for which the IC50 is under 5 µM.

Consider `Cc1c(-c2ccnc(N)n2)sc2ccc(C(=O)NCc3ccc(C(F)(F)F)cc3)cc12` [Example 444, Cc1c(sc2ccc(cc12)C(═O)NCc3ccc(cc3)C(F)(F)F)-c4ccnc(N)n4], for which the IC50 is over 5 µM.

With `Cc1c(-c2ccnc(N)n2)sc2ccc(C(=O)NCc3cccc(C(F)(F)F)c3)cc12` [Example 445, Cc1c(sc2ccc(cc12)C(═O)NCc3cccc(c3)C(F)(F)F)-c4ccnc(N)n4], the IC50 was under 5 µM.

Turning to `Cc1c(-c2ccnc(N)n2)sc2ccc(C(=O)NCc3ccc(Cl)c(Cl)c3)cc12` [Example 446, Cc1c(sc2ccc(cc12)C(═O)NCc3ccc(Cl)c(Cl)c3)-c4ccnc(N)n4], the IC50 was over 5 µM.

`Cc1c(-c2ccnc(N)n2)sc2ccc(C(=O)NC3CCN(Cc4ccccc4)C3)cc12` (stereo not shown) [Example 448, Cc1c(sc2ccc(cc12)C(═O)NC3CCN(C3)Cc4ccccc4)-c5ccnc(N)n5]: the IC50 was under 5 µM.

As for `COc1ccc(OC)c(CCNC(=O)c2ccc3sc(-c4ccnc(N)n4)c(C)c3c2)c1` [Example 449, COc1ccc(OC)c(CCNC(═O)c2ccc3sc(c(C)c3c2)-c4ccnc(N)n4)c1], the IC50 is under 5 µM.

As for `Cc1c(-c2ccnc(N)n2)sc2ccc(C(=O)NCc3ccc(N(C)C)cc3)cc12` [Example 450, CN(C)c1ccc(CNC(═O)c2ccc3sc(c(C)c3c2)-c4ccnc(N)n4)cc1], the IC50 is over 5 µM.

Turning to `COc1ccc(CNC(=O)c2ccc3sc(-c4ccnc(N)n4)c(C)c3c2)cc1O` [Example 451, COc1ccc(CNC(═O)c2ccc3sc(c(C)c3c2)-c4ccnc(N)n4)cc1O], the IC50 is under 5 µM.

Regarding `Cc1c(-c2ccnc(N)n2)sc2ccc(C(=O)NC3CCN(Cc4ccccc4)CC3)cc12` [Example 452, Cc1c(sc2ccc(cc12)C(═O)NC3CCN(CC3)Cc4ccccc4)-c5ccnc(N)n5], the IC50 is under 5 µM.

As for `Cc1c(-c2ccnc(N)n2)sc2ccc(C(=O)NCc3ccccc3OC(F)(F)F)cc12` [Example 453, Cc1c(sc2ccc(cc12)C(═O)NCc3ccccc3OC(F)(F)F)-c4ccnc(N)n4], the IC50 was over 5 µM.

Regarding `Cc1c(-c2ccnc(N)n2)sc2ccc(C(=O)NCCc3ccc(S(N)(=O)=O)cc3)cc12` [Example 454, Cc1c(sc2ccc(cc12)C(═O)NCCc3ccc(cc3)S(N)(═O)═O)-c4ccnc(N)n4], the IC50 is under 5 µM.

As for `COc1ccc(C(=O)CNC(=O)c2ccc3sc(-c4ccnc(N)n4)c(C)c3c2)cc1` [Example 455, COc1ccc(cc1)C(═O)CNC(═O)c2ccc3sc(c(C)c3c2)-c4ccnc(N)n4], the IC50 was under 5 µM.

Regarding `Cc1c(-c2ccnc(N)n2)sc2ccc(C(=O)NCCc3ccc4c(c3)OCO4)cc12` [Example 456, Cc1c(sc2ccc(cc12)C(═O)NCCc3ccc4OCOc4c3)-c5ccnc(N)n5], the IC50 is under 5 µM.

As for `Cc1c(-c2ccnc(N)n2)sc2ccc(C(=O)NCCC(c3ccccc3)c3ccccc3)cc12` [Example 457, Cc1c(sc2ccc(cc12)C(═O)NCCC(c3ccccc3)c4ccccc4)-c5ccnc(N)n5], the IC50 is over 5 µM.

On to `Cc1ccc(S(=O)(=O)NCCNC(=O)c2ccc3sc(-c4ccnc(N)n4)c(C)c3c2)cc1` [Example 458, Cc1ccc(cc1)S(═O)(═O)NCCNC(═O)c2ccc3sc(c(C)c3c2)-c4ccnc(N)n4], for which the IC50 was under 5 µM.

On to `Cc1c(-c2ccnc(N)n2)sc2ccc(C(=O)N(C)C)cc12` [Example 459, CN(C)C(═O)c1ccc2sc(c(C)c2c1)-c3ccnc(N)n3], for which the IC50 was under 5 µM.

With `CCN(C)C(=O)c1ccc2sc(-c3ccnc(N)n3)c(C)c2c1` [Example 460, CCN(C)C(═O)c1ccc2sc(c(C)c2c1)-c3ccnc(N)n3], the IC50 is under 5 µM.

Turning to `C#CCN(C)C(=O)c1ccc2sc(-c3ccnc(N)n3)c(C)c2c1` [Example 461, CN(CC#C)C(═O)c1ccc2sc(c(C)c2c1)-c3ccnc(N)n3], the IC50 was under 5 µM.

For `CCN(CC)C(=O)c1ccc2sc(-c3ccnc(N)n3)c(C)c2c1` [Example 462, CCN(CC)C(═O)c1ccc2sc(c(C)c2c1)-c3ccnc(N)n3], the IC50 was under 5 µM.

As to `CCCN(C)C(=O)c1ccc2sc(-c3ccnc(N)n3)c(C)c2c1` [Example 463, CCCN(C)C(═O)c1ccc2sc(c(C)c2c1)-c3ccnc(N)n3], the IC50 is under 5 µM.

For `Cc1c(-c2ccnc(N)n2)sc2ccc(C(=O)N(C)CCO)cc12` [Example 464, CN(CCO)C(═O)c1ccc2sc(c(C)c2c1)-c3ccnc(N)n3], the IC50 is under 5 µM.

On to `Cc1c(-c2ccnc(N)n2)sc2ccc(C(=O)N(C)CCC#N)cc12` [Example 465, CN(CCC#N)C(═O)c1ccc2sc(c(C)c2c1)-c3ccnc(N)n3], for which the IC50 was under 5 µM.

Turning to `Cc1c(-c2ccnc(N)n2)sc2ccc(C(=O)N3CCOCC3)cc12` [Example 466, Cc1c(sc2ccc(cc12)C(═O)N3CCOCC3)-c4ccnc(N)n4], the IC50 is under 5 µM.

Take `Cc1c(-c2ccnc(N)n2)sc2ccc(C(=O)N(C)CC(C)C)cc12` [Example 467, CC(C)CN(C)C(═O)c1ccc2sc(c(C)c2c1)-c3ccnc(N)n3]: the IC50 is under 5 µM.

For `CCN(C(=O)c1ccc2sc(-c3ccnc(N)n3)c(C)c2c1)C(C)C` [Example 468, CCN(C(C)C)C(═O)c1ccc2sc(c(C)c2c1)-c3ccnc(N)n3], the half-inhibitory concentration (IC50) is under 5 µM.

As to `CCCCN(C)C(=O)c1ccc2sc(-c3ccnc(N)n3)c(C)c2c1` [Example 469, CCCCN(C)C(═O)c1ccc2sc(c(C)c2c1)-c3ccnc(N)n3], the IC50 was under 5 µM.

As for `CCN(CCO)C(=O)c1ccc2sc(-c3ccnc(N)n3)c(C)c2c1` [Example 470, CCN(CCO)C(═O)c1ccc2sc(c(C)c2c1)-c3ccnc(N)n3], the half-maximal inhibitory concentration (IC50) was under 5 µM.

For the compound `Cc1c(-c2ccnc(N)n2)sc2ccc(C(=O)N3CCSC3)cc12` [Example 471, Cc1c(sc2ccc(cc12)C(═O)N3CCSC3)-c4ccnc(N)n4], the IC50 is under 5 µM.

For the compound `Cc1c(-c2ccnc(N)n2)sc2ccc(C(=O)N3CCCCC3C)cc12` (stereo not shown) [Example 472, CC1CCCCN1C(═O)c2ccc3sc(c(C)c3c2)-c4ccnc(N)n4], the IC50 was under 5 µM.

`Cc1c(-c2ccnc(N)n2)sc2ccc(C(=O)N3CCC(C)CC3)cc12` [Example 473, CC1CCN(CC1)C(═O)c2ccc3sc(c(C)c3c2)-c4ccnc(N)n4]: the IC50 was under 5 µM.

On to `Cc1c(-c2ccnc(N)n2)sc2ccc(C(=O)N3CCN(C)CC3)cc12` [Example 474, CN1CCN(CC1)C(═O)c2ccc3sc(c(C)c3c2)-c4ccnc(N)n4], for which the IC50 is under 5 µM.

Turning to `Cc1c(-c2ccnc(N)n2)sc2ccc(C(=O)N3CCCC3CO)cc12` (stereo not shown) [Example 475, Cc1c(sc2ccc(cc12)C(═O)N3CCCC3CO)-c4ccnc(N)n4], the IC50 was under 5 µM.

With `Cc1c(-c2ccnc(N)n2)sc2ccc(C(=O)N3CCC[C@@H]3CO)cc12` [Example 476, Cc1c(sc2ccc(cc12)C(═O)N3CCC[C@@H]3CO)-c4ccnc(N)n4], the IC50 was under 5 µM.

For the compound `CCCCN(CC)C(=O)c1ccc2sc(-c3ccnc(N)n3)c(C)c2c1` [Example 477, CCCCN(CC)C(═O)c1ccc2sc(c(C)c2c1)-c3ccnc(N)n3], the IC50 is under 5 µM.

Regarding `CCCN(CCC)C(=O)c1ccc2sc(-c3ccnc(N)n3)c(C)c2c1` [Example 478, CCCN(CCC)C(═O)c1ccc2sc(c(C)c2c1)-c3ccnc(N)n3], the concentration for half-maximal inhibition (IC50) was under 5 µM.
